Assay results reported in paper PMC10877564, “Activity of Gut-Derived Nisin-like Lantibiotics against Human Gut Pathogens and Commensals” (ACS Chemical Biology, 2024).
No end group written: not given here.

Columns and labels:
[1] = test system: Coprococcus eutactus MSK.18.32; test: MIC assay, anaerobic broth dilution; assay type: cell-based; conditions: SAR study blauticin versus nisin O, Figure 4
From the text: (§1) Antibiotic treatment may result in collateral damage to commensal bacteria in the human microbiome, leading to dysbiosis and susceptibility to various diseases.[44] How lantibiotics impact Gram-positive commensals from the human gut has remained unclear. Therefore, we performed antimicrobial activity tests of these lantibiotics against selected Gram-positive human gut commensals, most of which belong to the Lachnospiraceae family, one of the most abundant bacterial families in the human gut.[27] In general, human gut commensals were more susceptible to the set of investigated lantibiotics compared to pathogens (Figure 3).
(§2) Elution Buffer (4 M guanidine hydrochloride, 20 mM Tris HCl, pH 7.5 at 25 °C, 100 mM NaCl, 1 M imidazole). Peptides eluted from the Ni resin were concentrated and desalted using 3 kDa Amicon filters (Millipore). For leader peptide removal, the peptide (1:20 trypsin to peptide) was incubated with the trypsin protease in 50 mM Tris-HCl, pH 8 overnight at 37 °C. Lastly, the core peptides were further purified with HPLC using an Agilent 1200 instrument (Agilent) as specified in general methods. About 1.5 mg recombinant peptide was obtained after HPLC purification per […]
(§3) All MIC assays were performed under anaerobic condition. […] Lantibiotics were dissolved in DPBS, and concentrations were determined by BCA assay (Pierce) according to the manufacturer’s protocol. […]

[2] = test system: panel of Gram-positive human pathogens (VRE, MRSA, MRSE, L. monocytogenes, C. difficile); test: MIC assay against the panel of Gram-positive human pathogens; assay type: cell-based; conditions: pathogen panel, Figure 3A-E; anaerobic
From the text: Next, we set out to test the antimicrobial activities of these purified lantibiotics against a panel of Gram-positive bacteria that are representatives of some of the most prevalent human pathogens: VRE, Methicillin-resistant S. aureus USA300 (MRSA), Methicillin-resistant Staphylococcus epidermidis SK135 (MRSE), Listeria monocytogenes 10403S, and Clostridioides difficile VPI10463. We examined the growth of bacteria in a 96-well plate under a concentration gradient of lantibiotics under anaerobic conditions (Figure S2B).
as §2
Purification of blauticin from Blautia producta SCSK
Stationary anaerobic culture of BPSCSK was inoculated 1:100 to 1 L BHIS. Culture was incubated on a heating plate at 37 °C with 220 rpm stirring for 2 days in an anaerobic chamber. Bacteria were pelleted with 15,000 x g centrifugation for 15 min. The supernatant was acidified with acetic acid to pH 5.5 and filtered through a 0.22 um filter. Filtered supernatant was loaded onto a HiTrap SP HP column using an AKTA Pure FPLC, which was eluted sequentially with 3 CV of distilled water, 200 mM NaCl, 400 mM NaCl, 600 mM NaCl, 800 mM NaCl, and 1 M NaCl. The 800 mM NaCl eluate was concentrated with a 3 kDa Amicon filter, followed by dialyzation with DPBS using a 3 kDa Amicon filter. Purification of blauticin was confirmed by SDS-PAGE, VRE inhibition in vitro assay, and MALDI-TOF MS. […]
(§4) For broth cultures, isolates were grown in pre-reduced BHI supplemented with 5 g/L yeast extract (Difco, BD) and 0.1% L-cysteine under anaerobic condition.
(§5) Minimal Inhibition Concentration (MIC) assay
(§6) All MIC assays were performed under anaerobic condition. Stationary bacterial culture in BHIS (BHI supplemented with 5 g/L yeast extract and 0.1% L-cysteine) were inoculated 1:100 to wells containing 200 µL BHIS in U-bottom 96-well plates. Lantibiotics were dissolved in DPBS, and concentrations were determined by BCA assay (Pierce) according to the manufacturer’s protocol.
Lantibiotic stock solutions were added to wells to reach desired final concentration, with 3-fold serial dilution across rows to create concentration gradients. Bacteria-inoculated wells without lantibiotics served as control. […]

[3] = Liposome permeabilization assay, liposomes with lipid II; assay type: biochemical; conditions: 375 nM lantibiotic; DOPC with 0.1 mol% lipid II, 50 µM phospholipid; pyranine fluorescence, 30 min, room temperature; three replicates; Figure S7B
Experimental: (§7) To further investigate the mechanisms of action of these nisin-like lantibiotics, we performed liposome permeabilization assays using liposomes with or without lipid II (Figure S7).
(§8) Liposome Permeabilization Assay
(§9) To prepare pyranine encapsulated liposomes, DOPC (25 mg/mL in CHCl3, purchased from Avanti) was deposited into a vial and mixed with lipid II (dissolved in 2:1 CHCl3: MeOH, prepared chemoenzymatically).6 The solvent was removed using a stream of N2 leaving a thin film. Residual solvent was removed by storing it overnight in a vacuum desiccator. The film was rehydrated in buffer (5 mM Tricine, 5 mM MES, 5 mM NaCl, 1 mM pyranine pH = 6.0) and suspended with vortexing. The suspension was subjected to freeze-thaw three times before extrusion through a […] polycarbonate filter (21 passes). Excess pyranine was removed by passing the liposome solution through a Sephadex G-50 column previously equilibrated with buffer (5 mM Tricine, 5 mM MES, 5 mM NaCl, pH = 6.0). The eluted liposome solution containing the highest concentration of encapsulated pyranine (as determined visually with a UV lamp) was immediately placed on ice. Phospholipid concentration was determined by NMR as described previously.7 To measure liposome permeabilization, to a 96 well black polystyrene plate was added buffer (5 mM Tricine, 5 mM MES, 5 mM NaCl, pH = 8.0; 97 µL) and liposome solution (3 µL; 50 µM phospholipid concentration during assay). The wells were allowed to equilibrate for 8 min at room temperature then antibiotic was added. The antibiotic concentration in each well was 375 nM.
(§10) Pyranine fluorescence was monitored for 30 min then Triton X-100 was added to a final concentration of 0.1% and pyranine fluorescence was monitored for an additional 5 min. The pyranine fluorescence signal was max-min normalized. […]
(§11) Fig. S7 Liposome permeabilization assays of nisin-like lantibiotics. (A) Scheme of liposome […]
(§12) low fluorescence. Fluorescence increases upon liposome permeabilization and pH increase . (B) Fraction of liposomes permeabilized by lantibiotics (375 nM). Liposomes were composed of DOPC with or without 0.1 mol% lipid II. Error bars represent the standard of deviation of three […]
(§13) (1 picture or pasted object on this page, not shown here)

[4] = Liposome permeabilization assay, liposomes without lipid II; assay type: biochemical; conditions: 375 nM lantibiotic; DOPC, 50 µM phospholipid; pyranine fluorescence, 30 min; three replicates; Figure S7
Experimental: as §7, §8, §9, §10, §11, §12, §13

[5] = test system: selected Gram-positive human gut commensals; test: MIC assay against the panel of Gram-positive human gut commensals; assay type: cell-based; conditions: commensal panel, Figure 3F-M; anaerobic
From the text: as §1, §2, §3

C. comes MSK.11.23 = test: MIC assay, anaerobic broth dilution; assay type: cell-based, Coprococcus comes; conditions: Figure 3; anaerobic MIC assay
From the text: as §1, with “3). […]” for “3).”
Isolation of human gut commensal bacteria
Isolation and growth of commensal bacteria was done as previously reported.5 Briefly, fresh donor fecal samples were transferred into an anaerobic chamber (Coy Labs) within 1 h of collection. The anaerobic chamber was maintained using a gas mix consisting of 5% hydrogen, 5% carbon dioxide and 90% nitrogen, and hydrogen was maintained at ~3.0% using an anaerobic gas infuser. Fecal samples were resuspended in pre-reduced PBS and plated on Columbia blood agar or brain-heart infusion (BHI – Difco, BD) agar plates in three serial 10-fold dilutions and incubated at 37 °C for 48 – 96 h. Isolated colonies were re-streaked for purity onto Columbia blood agar and frozen in pre-reduced 10% glycerol in PBS.
as §4, §5, §6
Lantibiotic stock solutions were added to wells to reach desired final concentration, with 3-fold serial dilution across rows to create concentration gradients. Bacteria-inoculated wells without lantibiotics served as control. Plates were incubated at 37 °C for 48 h before being taken out of the anaerobic chamber for centrifugation. Plates were imaged with an iBright 1500 imager […]
pellets than those without lantibiotics were identified as MIC.

Row | Substance | inhibition (MIC) of C. eutactus, comparison in words [1] | inhibitory activity against pathogens based on MIC (ranking in words) [2] | permeabilization of lipid II-containing liposomes (in words) [3] | permeabilization of liposomes without lipid II compared to liposomes with lipid II (in words) [4] | antimicrobial activity against human gut commensals (ranking in words) [5] | sensitivity of C. comes MSK.11.23 to the lantibiotic (in words) (C. comes MSK.11.23)
1 | MAKFDDFDLDVTKTAAGEGGVEPRITSKSLCTPGCVTGILMTCPVQTATCGCQITGK (also: bicyclic or more (positions not given here)) [blauticin, class I lantibiotic of Blautia producta SCSK, heterologously produced in E. coli in mixed dehydration states] | lower MIC than nisin O | intermediate activities | strongly induced permeabilization | decreased permeabilization activities | – | –
2 | MAKFDDFDLDVTKTAAQGGIEPKYKSKSVCTPGCPTGILMTCPLKTATCGCHITGK (also: bicyclic or more (positions not given here)) [Lan-Df, novel nisin-like class I lantibiotic from Dorea formicigenerans, close homologue of nisin O] | – | strongest inhibitory activities | strongly induced permeabilization | decreased permeabilization activities | generally more effective in growth inhibition | relatively resistant
3 | nisin O | – | nisin A and Lan-Df had the strongest inhibitory activities against pathogens based on their MIC, followed by nisin O | strongly induced permeabilization | decreased permeabilization activities | – | relatively resistant
